The source of these data is patent US20240246943A1, “MULTIFACETED APPROACH TO NOVEL INTERLEUKIN-6 INHIBITORS” (UNIVERSITY OF FLORIDA RESEARCH FOUNDATION, INCORPORATED, priority 2021, published 2024).

Assay [1] has as its target T1, gp130 (Homo sapiens, UniProt P40189).
T1 construct: endogenous in cells; host or cells: MDA-MB-231 breast cancer cells (RIPA lysate)
T1 sequence (P40189 23-918): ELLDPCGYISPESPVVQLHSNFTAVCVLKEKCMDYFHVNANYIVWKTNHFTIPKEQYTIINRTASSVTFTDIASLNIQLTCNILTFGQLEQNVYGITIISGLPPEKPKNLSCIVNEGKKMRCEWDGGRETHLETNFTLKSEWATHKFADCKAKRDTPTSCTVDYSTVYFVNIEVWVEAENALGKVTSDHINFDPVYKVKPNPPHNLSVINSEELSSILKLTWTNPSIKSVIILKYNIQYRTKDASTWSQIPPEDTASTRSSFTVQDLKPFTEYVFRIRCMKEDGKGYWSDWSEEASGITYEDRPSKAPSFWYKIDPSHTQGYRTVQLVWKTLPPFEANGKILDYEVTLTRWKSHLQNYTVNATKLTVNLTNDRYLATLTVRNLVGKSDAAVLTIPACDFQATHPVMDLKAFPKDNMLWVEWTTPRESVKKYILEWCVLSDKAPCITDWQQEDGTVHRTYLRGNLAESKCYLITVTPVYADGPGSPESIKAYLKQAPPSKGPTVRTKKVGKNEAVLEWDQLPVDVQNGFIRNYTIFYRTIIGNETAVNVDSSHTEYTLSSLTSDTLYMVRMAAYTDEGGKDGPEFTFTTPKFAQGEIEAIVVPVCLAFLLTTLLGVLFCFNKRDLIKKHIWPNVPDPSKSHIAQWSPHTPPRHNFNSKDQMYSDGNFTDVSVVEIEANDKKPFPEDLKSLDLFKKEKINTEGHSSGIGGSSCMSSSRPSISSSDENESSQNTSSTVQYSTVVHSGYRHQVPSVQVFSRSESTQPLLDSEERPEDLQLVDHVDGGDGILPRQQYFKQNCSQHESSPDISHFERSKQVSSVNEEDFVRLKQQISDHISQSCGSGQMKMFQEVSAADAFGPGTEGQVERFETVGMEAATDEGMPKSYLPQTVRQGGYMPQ
The experiment in a line: DARTS assay in MIAPaCa2 pancreatic cancer cell lysates. Type of assay: binding. To be noted: 1:2000 pronase:protein, proteolysis 20 minutes; FIG. 2. As for the experimental part: (§1) Cells were harvested and lysed in cold radioimmunoprecipitation assay (RIPA) lysis buffer containing proteasome inhibitor cocktail and phosphatase inhibitor cocktail. The protein concentrations were determined using the BCA Protein Assay kit. After adding the loading buffer and boiling at 95° C. for 10 minutes, equivalent amounts of proteins were loaded on and separated by SDS-PAGE, and then were transferred to PVDF membranes. Membranes were probed with primary antibodies (1:1000) against gp130 and GAPDH. Membranes were analyzed using Enhanced Chemiluminescence Plus reagents and either scanned with the Storm Scanner (Amersham Pharmacia Biotech, Inc., Piscataway, NJ) or imaged with ChemiDoc MP imaging system (Bio-Rad, Hercules, CA).
(§2) MDA-MB-231 breast cancer cells or MIAPaCa2 pancreatic cancer cells were lysed in cold radioimmunoprecipitation assay (RIPA) lysis buffer containing proteasome inhibitor cocktail and phosphatase inhibitor cocktail. Then lysates were incubated with escalating concentrations (10-1000 μM) of LS-28-3 or bazedoxifene at room temperature for 1 h. Proteolysis was followed by adding protease pronase solution at a ratio of 1 mg of pronase to 1000 mg (or 2000 mg) of lysate protein for 20 min at room temperature. […] The resulted protein samples were separated by 8% SDS-PAGE gel and analyzed by western blotting. […]

For assay [2], the system named is MDA-MB-231 breast cancer cells. Nature of the assay: MTT cell viability assay, MDA-MB-231. To be noted: MTT, 10 μM compound. The format is cell-based. The protocol: Cell viability of MDA-MB-231 breast cancer cells was evaluated by using the MTT assay in triple replicates in one experiment and repeated for three times (FIG. 3). […] The cells were incubated at 37° C. for a period of 24 hours. Escalating concentrations of IL-6/gp130 inhibitors (e.g., compounds of Formula (A), (B), (C), (D), (E), or (F) including LLM-418, bazedoxifene, LS-28-3, and COMP-D (LS-101-D)) were added in triplicate to the plates in the presence of 10% FBS. After incubation for 72 hours (unless otherwise noted), a stock solution of MTT (0.5 mg/ml) was then added to each well containing the treated cells, followed by incubation at 37° C. for 3 h. After removal of medium, the MTT dye was dissolved with spectrophotometric grade DMSO and the absorbance was read at 570 nm. The IC50 value is determined by interpolation based on the absorbance value halfway between positive and negative controls.

Assay [3] concerns the target T1, gp130. The experiment in a line: DARTS assay in MDA-MB-231 breast cancer cell lysates. Type of assay: binding. To be noted: 1:2000 pronase:protein, proteolysis 20 minutes; FIG. 1. The protocol: as §1, §2
The test system of assay [4] is SUM159 breast cancer cells. Nature of the assay: MTT cell viability assay, SUM159. To be noted: 72 hours, Inactive = no measurable activity at 20 μM. Type of assay: cell-based. The protocol:
Cell viability of MDA-MB-231 breast cancer cells was evaluated by using the MTT assay in triple replicates in one experiment and repeated for three times (FIG. 3). MDA-MB-231 SUM159, SUM159 […], MDA-MB-231 breast cancer cells or SUM149 or HCC1937 BRCA mutant breast cancer cells were seeded in 96-well plates at a density of 3,000 cells per well. The cells were incubated at 37° C. for a period of 24 hours. Escalating concentrations of IL-6/gp130 inhibitors (e.g., compounds of Formula (A), (B), (C), (D), (E), or (F) including LLM-418, bazedoxifene, LS-28-3, and COMP-D (LS-101-D)) were added in triplicate to the plates in the presence of 10% FBS. After incubation for 72 hours (unless otherwise noted), a stock solution of MTT (0.5 mg/ml) was then added to each well containing the treated cells, followed by incubation at 37° C. for 3 h. After removal of medium, the MTT dye was dissolved with spectrophotometric grade DMSO and the absorbance was read at 570 nm. The IC50 value is determined by interpolation based on the absorbance value halfway between positive and negative controls.

For assay [5], the target named is T2, extracellular domain of glycoprotein 130 (gp130) (Homo sapiens, UniProt P40189).
T2 sequence (P40189 23-619 limits assumed): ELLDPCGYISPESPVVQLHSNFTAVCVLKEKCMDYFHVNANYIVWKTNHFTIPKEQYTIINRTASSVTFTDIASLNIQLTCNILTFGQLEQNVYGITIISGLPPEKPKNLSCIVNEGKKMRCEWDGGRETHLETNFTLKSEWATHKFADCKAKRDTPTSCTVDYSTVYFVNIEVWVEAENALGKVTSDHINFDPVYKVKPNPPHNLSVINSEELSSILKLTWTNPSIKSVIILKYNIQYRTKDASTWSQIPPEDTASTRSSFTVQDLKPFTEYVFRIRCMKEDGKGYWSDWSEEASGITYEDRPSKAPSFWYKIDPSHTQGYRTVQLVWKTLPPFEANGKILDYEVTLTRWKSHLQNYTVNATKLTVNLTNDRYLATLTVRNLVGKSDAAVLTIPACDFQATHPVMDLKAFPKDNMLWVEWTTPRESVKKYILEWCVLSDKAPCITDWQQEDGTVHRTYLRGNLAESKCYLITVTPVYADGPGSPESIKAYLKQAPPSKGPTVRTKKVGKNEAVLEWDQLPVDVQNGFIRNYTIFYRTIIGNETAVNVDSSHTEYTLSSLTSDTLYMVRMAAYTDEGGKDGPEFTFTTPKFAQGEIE
To be noted: binding to extracellular domain of gp130; literature reference 6; cited from earlier work.

Marks after values point to notes of the source that are not given here.

In the case of `CC(C)[C@H]1COC(=O)N1c1ccc(C(=O)Nc2cccc(-c3cc[nH]n3)c2)cc1` [LS-28-3, (S)—N-(3-(1H-pyrazol-3-yl)phenyl)-4-(4-isopropyl-2-oxooxazolidin-3-yl)benzamide], the “Binding to gp130 (protection from pronase proteolysis), MIAPaCA2 lysates” value at gp130 [1] was “showed direct binding to gp130”. Moreover, the “Percent cells remaining after treatment with 10 μM compound, MDA-MB-231” value in assay [2] (Table 1 batch studies) and in assay [2] (Table 3 batch studies) was 88%*** each time. On gp130 [3], the “Binding to gp130 (protection from pronase proteolysis), MDA-MB-231 lysates” value is “showed direct binding to gp130”. Moreover, the “IC50 Values in Breast Cancer Cell Lines, SUM159” value in assay [4] (Table 1 batch studies) is on record as “Inactive”. Moreover, the “SUM159 IC50” value in assay [4] (Table 3 batch studies (independent from Table 1)) is “Inactive”.

Regarding `CCCCC1=C(C)C(=O)[C@](C)(CN2c3ccccc3[C@]3(O)CCOC23)C1=O` (stereo partly shown) [MDL-A, Madindoline A], the dissociation constant (Kd) (commonly the equilibrium constant for the complex coming apart) in assay [5] was 288 µM.
